The results in this text go back to patent publication US20250154162A1, “COMPOUND FOR REGULATING AND CONTROLLING 15-PGDH ACTIVITY AND PREPARATION METHOD THEREFOR” (SCINNOHUB PHARMACEUTICAL CO., LTD., priority 2022, published 2025).

One experiment addresses 15-PGDH (Homo sapiens (Human), UniProt P15428). Briefly: Detection of 15-PGDH enzyme activity. The experiment is classed as biochemical. The following applies: 15-PGDH enzyme inhibitory activity; substrates β-NAD and PGF2α. From the text:
The formula was shown below: Y=Bottom+(Top-Bottom)/(1+10∧((LogIC50−X)*HillSlope)), wherein X is a log value of a concentration of the compound, and Y is inhibition rate %.

For a further experiment, the system named is A549 cells. As to the kind of experiment: Assay of intracellular PGE2 up-regulatory activity. Format: cell-based. The following applies: Homo sapiens, IL-1β induced, 8 h, relative to positive control group; for activity at 0.01 µM: 10 nM compound, read-out: PGE2 upregulation rate at 10 nM compound concentration; for activity at 0.3 µM: 300 nM compound, read-out: PGE2 upregulation rate at 300 nM compound concentration. The method, then: • a) A549 cells were inoculated in the 24-well plate, and after cell adhesion, IL-1β was added thereto for 16 h of stimulation to induce COX2 expression and PGE2 production. • b) A solution of the compound to be tested was prepared with the culture medium and gradiently diluted to 3 concentrations of 10 nM, 300 nM and 10,000 nM or 7 concentrations of 0.64 nM, 3.2 nM, 16 nM, 80 nM, 400 nM, 2000 nM and 10,000 nM, and meanwhile the positive control group (only IL-1β was added to the cells for induction) and negative control group (only cells were added in the wells without any treatment) were set up. The cell supernatants were collected after 8 h of action, in which the positive control group was induced by IL-1β without treatment of the compounds, and the negative control group was neither stimulated by IL-1β, nor treated with the compounds. • c) The PGE2 content of the samples was determined by Prostaglandin E2 Kit, and the fluorescence signal was detected by a multifunctional microplate reader (Ex/Em=337/620, 337/665).
• a) A standard curve was plotted with the PGE2 standard in the Prostaglandin E2 Kit, and the PGE2 concentration was calculated by substituting with the fluorescence signal of the sample. • b) The PGE2 upregulation rate % was calculated by using the following formula: • PGE2 upregulation rate %=(PGE2 concentration of sample group/PGE2 concentration of positive control group)×100%.

Molecules are shown by their SMILES.

Chain of 15-PGDH (P15428 whole entry): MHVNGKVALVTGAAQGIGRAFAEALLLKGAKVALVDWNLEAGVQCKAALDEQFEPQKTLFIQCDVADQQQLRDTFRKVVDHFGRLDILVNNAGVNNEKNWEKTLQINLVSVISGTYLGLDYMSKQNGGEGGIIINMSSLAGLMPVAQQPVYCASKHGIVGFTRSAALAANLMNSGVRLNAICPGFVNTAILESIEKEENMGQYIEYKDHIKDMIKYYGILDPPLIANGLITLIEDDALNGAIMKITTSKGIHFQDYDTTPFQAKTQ

At 15-PGDH, `Nc1c(C(=O)N2CCCCC2)sc2nc(-c3ccccc3)cnc12` [Example 1, (7-amino-3-phenylthieno[2,3-b]pyrazin-6-yl) (piperidin-1-yl) methanone] showed an IC50 of 3 to 10 nM.

Regarding `Nc1c(C(=O)N2CCCCC2)sc2nc(-c3ccc4ncoc4c3)cnc12` [Example 2, (7-amino-3-(benzo[d]oxazol-6-yl)thieno[2,3-b]pyrazin-6-yl) (piperidin-1-yl) methanone], on 15-PGDH, the IC50 was 0.5 to 3 nM. Besides, in the experiment on A549 cells, the activity at 0.01 µM worked out at 200% and the activity at 0.3 µM is 348%.

For the compound `Nc1c(C(=O)N2CCC(F)CC2)sc2nc(-c3ccccc3)cnc12` [Example 3, (7-amino-3-phenylthieno[2,3-b]pyrazin-6-yl) (4-fluoropiperidin-1-yl) methanone], the IC50 at 15-PGDH was in the range of 10 to 25 nM.

`Nc1c(C(=O)N2CCCCCC2)sc2nc(-c3ccccc3)cnc12` [Example 4] displayed an IC50 against 15-PGDH of 10 to 25 nM.

Compound `Nc1c(C(=O)N2CCCCC2)sc2nc(-c3cccs3)cnc12` [Example 5] displayed an IC50 against 15-PGDH of 0.5 to 3 nM. The activity at 0.01 µM with A549 cells is 451%.

The compound `Nc1c(C(=O)N2CCCCC2)sc2nc(-c3cncnc3)cnc12` [Example 6] displayed an IC50 against 15-PGDH of 0.5 to 3 nM. Moreover, in the experiment on A549 cells, the activity at 0.01 µM is 412% and the activity at 0.3 µM was 450%.

In turn, `Nc1c(C(=O)N2CCCCC2)sc2nc(-c3cncs3)cnc12` [Example 7] had an IC50 on 15-PGDH of 0.5 to 3 nM. Besides, in the experiment with A549 cells, the activity at 0.01 µM was 479% and the activity at 0.3 µM turned out to be 758%.

The compound `Cn1ccc(-c2cnc3c(N)c(C(=O)N4CCCCC4)sc3n2)n1` [Example 8] yielded a concentration for half-maximal inhibition (IC50) against 15-PGDH of 3 to 10 nM.

`Nc1c(C(=O)N2CCCCC2)sc2nc(-c3ccn[nH]3)cnc12` [Example 9] gave an IC50 on 15-PGDH of 3 to 10 nM.

As to `Nc1c(C(=O)N2CCCCC2)sc2nc(-c3ccc4c(c3)OCCO4)cnc12` [Example 10], the IC50 against 15-PGDH was in the range of 0.5 to 3 nM. For the same compound, the activity at 0.3 µM with A549 cells was determined as 206%.

`Cc1noc(C)c1-c1cnc2c(N)c(C(=O)N3CCCCC3)sc2n1` [Example 11] gave an IC50 on 15-PGDH of 0.5 to 3 nM. The activity at 0.01 µM in the experiment on A549 cells was found to be 990%.

For the compound `Nc1c(C(=O)N2CCCCC2)sc2nc(-c3ccc4nccnc4c3)cnc12` [Example 12], the IC50 against 15-PGDH fell in the range of 0.5 to 3 nM. Besides, in the experiment on A549 cells, the activity at 0.3 µM was found to be 170%.

Regarding `Nc1ccc(-c2cnc3c(N)c(C(=O)N4CCCCC4)sc3n2)cn1` [Example 13], the IC50 against 15-PGDH lay in the range of 0.5 to 3 nM. In the experiment on A549 cells, the activity at 0.3 µM is 207%.

At 15-PGDH, `Nc1c(C(=O)N2CCCCC2)sc2nc(-c3ccc4nccn4c3)cnc12` [Example 15] had an IC50 of 0.5 to 3 nM. Moreover, in the experiment on A549 cells, the activity at 0.3 µM worked out at 168%.

`Nc1c(C(=O)N2CCSCC2)sc2nc(-c3ccccc3)cnc12` [Example 16] came in with an IC50 against 15-PGDH of 10 to 25 nM.

For the compound `Cn1cc(-c2cnc3c(N)c(C(=O)N4CCCCC4)sc3n2)ccc1=O` [Example 17], the IC50 at 15-PGDH is 0.5 to 3 nM.

For `Cn1ncc2cc(-c3cnc4c(N)c(C(=O)N5CCCCC5)sc4n3)ccc21` [Example 18], the IC50 against 15-PGDH is 3 to 10 nM.

For `Nc1c(C(=O)N2CCCCC2)sc2nc(-c3ccc(N4CCOCC4)nc3)cnc12` [Example 19], the IC50 on 15-PGDH lay in the range of 3 to 10 nM.

`COc1ccc(-c2cnc3c(N)c(C(=O)N4CCCCC4)sc3n2)cn1` [Example 20] showed an IC50 on 15-PGDH of 0.5 to 3 nM.

On 15-PGDH, `Nc1c(C(=O)N2CCCCC2)sc2nc(-c3ccnc(F)c3)cnc12` [Example 21] showed an IC50 of under 0.5 nM. Further, the activity at 0.3 µM in the experiment with A549 cells worked out at 211%.

On 15-PGDH, `Nc1c(C(=O)N2CCCCC2)sc2nc(-c3ccc4ncccc4c3)cnc12` [Example 22] registered an IC50 of 0.5 to 3 nM. Also, in the experiment on A549 cells, the activity at 0.01 µM amounted to 282% and the activity at 0.3 µM is 329%.

The compound `Nc1c(C(=O)N2CCCCC2)sc2nc(-c3ccc4ncsc4c3)cnc12` [Example 23] returned an IC50 on 15-PGDH of under 0.5 nM. Besides, in the experiment on A549 cells, the activity at 0.01 µM came to 254% and the activity at 0.3 µM is 375%.

On 15-PGDH, `Nc1c(C(=O)N2CCCCC2)sc2nc(-c3cnc(N4CCOCC4)nc3)cnc12` [Example 24] registered an IC50 of under 0.5 nM. Moreover, the activity at 0.3 µM with A549 cells is 310%.

Take `CN(C)c1ncc(-c2cnc3c(N)c(C(=O)N4CCCCC4)sc3n2)cn1` [Example 25]: the IC50 against 15-PGDH is under 0.5 nM. The activity at 0.3 µM with A549 cells worked out at 276%.

In the case of `Nc1c(C(=O)N2CCCCC2)sc2nc(-c3cncc4ccccc34)cnc12` [Example 26], the IC50 on 15-PGDH is 0.5 to 3 nM. Moreover, in the experiment on A549 cells, the activity at 0.01 µM came out at 499%.

On to `Nc1c(C(=O)N2CCCCC2)sc2nc(-c3ccncc3)cnc12` [Example 27], for which the IC50 at 15-PGDH is 0.5 to 3 nM.

In turn, `Nc1c(C(=O)N2CCCCC2)sc2nc(-c3cnc4[nH]ccc4c3)cnc12` [Example 29] had an IC50 on 15-PGDH of 0.5 to 3 nM.

Consider `Nc1c(C(=O)N2CCCCC2)sc2nc(-c3cnc4ccccc4c3)cnc12` [Example 31], for which, at 15-PGDH, the IC50 lay in the range of 0.5 to 3 nM.

Regarding `Nc1c(C(=O)N2CCCCC2)sc2nc(-c3c(Cl)cccc3Cl)cnc12` [Example 34], the IC50 on 15-PGDH was in the range of 0.5 to 3 nM.

At 15-PGDH, `Nc1c(C(=O)N2CCCCC2)sc2nc(-c3ccnc(C(F)(F)F)c3)cnc12` [Example 37] had a half-maximal inhibitory concentration (IC50) of 3 to 10 nM.

In the case of `Nc1c(C(=O)N2CCCCC2)sc2nc(-c3ccc4cccnc4c3)cnc12` [Example 39], the IC50 against 15-PGDH fell in the range of 0.5 to 3 nM.

As for `Nc1c(C(=O)N2CCCCC2)sc2nc(-c3cnc4[nH]ncc4c3)cnc12` [Example 41], the 50% inhibitory concentration (IC50) against 15-PGDH was 3 to 10 nM.

The compound `Nc1c(C(=O)N2CCCCC2)sc2nc(-c3ccc4c(c3)OCO4)cnc12` [Example 43] came in with an IC50 at 15-PGDH of 3 to 10 nM.

For the compound `N#Cc1ncc(-c2cnc3c(N)c(C(=O)N4CCCCC4)sc3n2)cn1` [Example 44], on 15-PGDH, the IC50 was in the range of 3 to 10 nM.

On to `Cn1cc(-c2cnc3c(N)c(C(=O)N4CCCCC4)sc3n2)cn1` [Example 48], for which, at 15-PGDH, the IC50 was in the range of 10 to 25 nM.

For the compound `Nc1c(C(=O)N2CCC(F)(F)CC2)sc2nc(-c3ccccc3)cnc12` [Example 49], at 15-PGDH, the IC50 fell in the range of 50 to 1000 nM.

Compound `Nc1c(C(=O)N2CCC(F)(F)C2)sc2nc(-c3ccccc3)cnc12` [Example 50] came in with an IC50 at 15-PGDH of 50 to 1000 nM.

At 15-PGDH, `Nc1c(C(=O)N2CCOCC2)sc2nc(-c3ccccc3)cnc12` [Example 51] yielded a half-maximal inhibitory concentration (IC50) of 50 to 1000 nM.

For `CN1CCN(C(=O)c2sc3nc(-c4ccccc4)cnc3c2N)CC1` [Example 52], at 15-PGDH, the half-inhibitory concentration (IC50) lay in the range of 50 to 1000 nM.

Regarding `Nc1c(C(=O)N2CCS(=O)(=O)CC2)sc2nc(-c3ccccc3)cnc12` [Example 53], the IC50 at 15-PGDH lay within 1000 to 5000 nM.

Regarding `Nc1c(C(=O)N2CCc3ccccc3C2)sc2nc(-c3ccccc3)cnc12` [Example 54], the IC50 against 15-PGDH was in the range of 50 to 1000 nM.

For `CC1CN(C(=O)c2sc3nc(-c4ccccc4)cnc3c2N)CC(C)O1` (stereo not drawn) [Example 55], the IC50 against 15-PGDH was in the range of 50 to 1000 nM.

As to `CC1(C)CCN(C(=O)c2sc3nc(-c4ccccc4)cnc3c2N)CC1` [Example 56], the IC50 against 15-PGDH was 50 to 1000 nM.

On 15-PGDH, `Nc1c(C(=O)N2CCC3(CC2)CC3)sc2nc(-c3ccccc3)cnc12` [Example 57] yielded an IC50 of 50 to 1000 nM.

`Nc1c(C(=O)N2CC[S+]([O-])CC2)sc2nc(-c3ccccc3)cnc12` [Example 58] came in with an IC50 against 15-PGDH of over 5000 nM.

`Nc1c(C(=O)N2CC3(COC3)C2)sc2nc(-c3ccccc3)cnc12` [Example 59]: on 15-PGDH, the half-maximal inhibitory concentration (IC50) was over 5000 nM.

Compound `COc1ncc(-c2cnc3c(N)c(C(=O)N4CCCCC4)sc3n2)cn1` [Example 60] yielded an IC50 against 15-PGDH of under 0.5 nM.

In turn, `Nc1c(C(=O)N2CCCCC2)sc2nc(-c3cccc4ccccc34)cnc12` [Example 61] came in with an IC50 against 15-PGDH of 3 to 10 nM.

In turn, `Nc1cc(-c2cnc3c(N)c(C(=O)N4CCCCC4)sc3n2)ccn1` [Example 62] returned an IC50 at 15-PGDH of 0.5 to 3 nM.

As a reminder, the IC50 is the concentration needed to halve the response being measured. Lower therefore signals higher potency.
